From patent US20090325959A1 (priority 2008, published 2009)
Read-outs that look alike come from different tables or passages of the source.

Legend:
ROCK1 = target: T1, ROCK1 (Homo sapiens, UniProt Q13464); assay: Rho kinase inhibition assay (IMAP fluorescence polarization), ROCK1; format: biochemical;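 note: kinase reaction run 60 min at room temperature, then phosphorylated substrate captured on IMAP beads for 30 min, with fluorescence polarization read in mP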
T1 construct: purchased Upstate/Chemicon 14-601
T1 sequence (Q13464 17-535 limits assumed): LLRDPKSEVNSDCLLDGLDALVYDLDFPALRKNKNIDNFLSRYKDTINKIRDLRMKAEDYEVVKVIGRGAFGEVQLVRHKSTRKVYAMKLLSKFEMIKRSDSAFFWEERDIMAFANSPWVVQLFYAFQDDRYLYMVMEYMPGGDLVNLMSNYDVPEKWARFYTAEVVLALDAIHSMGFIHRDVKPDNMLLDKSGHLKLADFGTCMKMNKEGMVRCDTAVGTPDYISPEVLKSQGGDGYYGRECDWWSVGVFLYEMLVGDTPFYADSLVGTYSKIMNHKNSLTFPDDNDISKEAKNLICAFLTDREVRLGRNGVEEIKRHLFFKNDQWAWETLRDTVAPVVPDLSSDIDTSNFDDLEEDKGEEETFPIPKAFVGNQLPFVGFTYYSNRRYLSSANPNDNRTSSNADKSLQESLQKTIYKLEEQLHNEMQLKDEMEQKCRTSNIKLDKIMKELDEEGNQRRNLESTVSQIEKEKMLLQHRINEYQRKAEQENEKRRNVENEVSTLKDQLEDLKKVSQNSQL
Method: (§1) Following the pre-incubation, 10 μM ATP was added to initiate the reaction. After 60 minutes at room temperature, Molecular Devices IMAP™ binding solution was added to bind phosphorylated substrate. After 30 minutes of incubation in the presence of the IMAP™ beads, the fluorescence polarization was read and the ratio was reported as mP. IC50 values for compounds and EC50 values for ATP were calculated using the Prism software from Graphpad.

ROCK2 = target: T2, ROCK2 (Homo sapiens, UniProt O75116); assay: Rho kinase inhibition assay (IMAP fluorescence polarization), ROCK2; format: biochemical;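 note: kinase reaction started with 10 µM ATP and run 60 min at room temperature, then phosphorylated substrate captured on IMAP beads for 30 min and fluorescence polarization read in mP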
T2 construct: purchased Upstate/Chemicon 14-451
T2 sequence (O75116 11-552 limits assumed): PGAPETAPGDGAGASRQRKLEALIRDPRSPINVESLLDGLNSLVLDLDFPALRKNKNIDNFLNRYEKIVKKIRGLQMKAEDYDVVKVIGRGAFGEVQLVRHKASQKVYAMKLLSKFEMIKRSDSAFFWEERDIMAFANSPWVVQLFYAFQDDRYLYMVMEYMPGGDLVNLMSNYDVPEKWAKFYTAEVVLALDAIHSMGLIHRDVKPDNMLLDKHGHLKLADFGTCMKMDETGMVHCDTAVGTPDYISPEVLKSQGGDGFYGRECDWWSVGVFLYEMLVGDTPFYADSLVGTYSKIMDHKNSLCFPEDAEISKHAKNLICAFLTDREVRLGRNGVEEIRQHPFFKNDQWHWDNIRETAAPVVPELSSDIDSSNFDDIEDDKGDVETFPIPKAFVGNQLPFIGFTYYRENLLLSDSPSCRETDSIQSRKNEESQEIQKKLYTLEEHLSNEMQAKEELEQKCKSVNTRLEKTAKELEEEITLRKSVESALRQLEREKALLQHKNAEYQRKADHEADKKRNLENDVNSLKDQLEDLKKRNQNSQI
Method: as §1

human neutrophils = assay: Human neutrophil chemotaxis induced by fMLP (modified Boyden chamber); format: cell-based
Outline: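 Neutrophils from healthy volunteers' blood, isolated by Ficoll-paque centrifugation, dextran sedimentation and hypotonic red-cell lysis. Migration measured in a modified Boyden chamber (3 μm polycarbonate membrane) toward 1 μM fMLP for 1 h at 37° C., 5% CO2. Compounds tested in dose response.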

[1] = tested on: ova-sensitized, ova-challenged mice; assay: Mouse ovalbumin sensitization model, in vivo anti-inflammatory activity (BALF eosinophils and cytokines)
Method: Male BALB/c mice were ordered from Charles River Laboratories (Raleigh, N.C.). The animals were approximately 19 to 21 grams at time of receipt. Upon arrival, the animals were randomized into groups of five males per cage and assigned to a dosing group. Animals were quarantined for 7 days under test conditions. They were observed daily for general health status and ability to adapt to the water bottles. Animals were sensitized on day 0 and 14 of study by an intraperitoneal injection with 20 μg of ovalbumin (ova) and 2.0 mg aluminum hydroxide (alum) which initiates the development of a specific T-helper (Th) cells type 2 resulting in asthmatic animals (denoted as Ova in the figures). One group of animals received an injection of saline to use as control animals (denoted as normal in the figures). […] Aerosol challenge consists of using an Aerogen Aeroneb nebulizer and controller with a particle size of 4-6 μm mass median aerodynamic diameter (MMAD) with a distribution of 400 μl per minute. This aerosol challenge is necessary to target the Th2-driven allergic inflammation in the lower airways.
The anti-inflammatory dosing paradigm (FIG. 3) was utilized to evaluate the anti-inflammatory effects of experimental compounds. […] On day 32 of the experiment, after measurement of airway hyperreactivity, BALF was collected and all animals were anesthetized, bled and euthanized.
Bronchoalveolar lavage fluid (BALF) was collected by infusing 3.0 ml of saline with 10% fetal calf serum into the lungs via the trachea and then withdrawing the fluid. The total amount of cells/ml of BALF fluid was determined via manual cell count on hemocytometer. The BALF was centrifuged, supernatant removed and analyzed for cytokine concentrations as described below, and cell pellet reconstituted in 500 μL of fluid. Cytospin slides were prepared from the cell pellet using 100 μL of fluid and spinning samples for 5 minutes at 5000 rpms in a cytospin centrifuge. Following Hema3 stain, relative percentages of individual leukocytes were determined on a 200 cell count for each sample. The final concentration of individual leukocyte cell types per ml of BALF was determined by multiplication of the relative percentage of individual leukocytes with the total amount of cells/ml of BALF fluid.
The concentrations of cytokines in the BALF samples were determined using commercially available Bio-plex kits (Bio-Rad) for the detection of mouse IL-5, IL-13, and Eotaxin. The analysis of cytokine levels was measured using the Bio-Plex 200 (Bio-Rad) system according to the manufacturer's instructions.

[2] = tested on: ova-sensitized, ova-challenged mice; assay: Prevention of airway hyperreactivity (Penh, methacholine) in mouse ovalbumin sensitization model; format: in vivo
Method: The anti-inflammatory dosing paradigm consists of dosing the animals once a day starting on day 27 and finishing on either day 30 or 31 (1 hr prior to the aerosolized ovalbumin challenges on days 28 to 30) but not on day 32 when hyperreactivity evaluation occurs. […] Exposure to the methacholine doses consisted of a 3 minute period during which a nebulizer was aerosolizing the methacholine and an additional 3 minute period following the cessation of nebulization. […] Enhanced pause (Penh), a unitless index of airway hyperreactivity, is derived from the expiratory side of the respiratory waveform measured via the plethysmograph and is used as an indirect measure of airway resistance and hyperreactivity. […] Following the methacholine dose response, BALF was collected and all animals were anesthetized, bled and euthanized. […] The Penh value at each of the dose levels of methacholine represents the 6-minute average response. Change from baseline (CFB) in Penh was calculated at each methacholine dose and the area under the curve (AUC) for these CFB values was calculated using the trapezoidal rule. This same approach was applied for each mouse across multiple experiments. […] Data from equal experimental conditions across experiments performed on different days were pooled for statistical analysis and data reporting. […] A random intercept for each experiment was assumed to account for possible similarities of the results obtained from a given experiment (i.e., as a “blocking effect”). […] For FIG. 9, linear AUC values from compound treated mice were reported as a percent of linear AUC values from vehicle-treated ovalbumin-sensitized/ovalbumin-challenged (asthmatic) mice.

human monocytes = assay: Human monocyte cytokine secretion assay (LPS-stimulated); format: cell-based; details: average percent of stimulated IL-1β secretion from human monocytes at 10 μM of test compound
Method: Peripheral blood from healthy human volunteers was collected and the monocytes isolated via Ficoll-paque density centrifugation. […] The cells were allowed to pre-incubate with test compound at the indicated concentration for 30 minutes (37° C., 5% CO2, humidified air); after which the supernatant was removed and media containing compound and 1 ng/mL LPS was added. Cells were allowed to incubate with compounds and LPS for 4 hours at 37° C. after which the supernatant was removed and stored at −80° C. Cytokine concentrations in the supernatant were determined using commercially available Bio-Rad Bio-plex™ kits according the manufacturer's instructions.

LPS-challenged mice = assay: LPS-induced neutrophilia and cytokine production assay; format: in vivo, mouse; details: intratracheal administration; FIG. 11B
Method: Male BALB/c mice, approximately 19 to 21 grams, were ordered from Charles River Laboratories (Raleigh, N.C.). All animals were challenged with aerosolized LPS (10 μg/ml) for 25 minutes on study day 0. LPS aerosol was generated using an Aerogen Aeroneb nebulizer and controller providing a flow of 400 μl/min and a particle size of 2-4 μm MMAD. Rolipram was administered i.p at 20 mg/kg. […] Four hours following LPS challenge, BALF was collected using a total of 3 ml of 0.9% sodium chloride containing 10% fetal calf serum. Total cell counts were determined using the Coulter Counter. For differential evaluations, BALF was centrifuged and cytospin slides prepared and stained with Hema3 stain. Manual leukocyte counts were then completed on 200 cells. The final concentration of individual leukocyte cell types per ml of BALF was determined by multiplication of the relative percentage of individual leukocytes with the total amount of cells/ml of BALF fluid. The concentration of IL-1β in the BALF samples was determined using commercially available Bio-plex kits (Bio-Rad). The analysis of cytokine levels was measured using the Bio-Plex 200 (Bio-Rad) system according to the manufacturer's instructions.

[3] = tested on: A-10 rat thoracic aorta cells; assay: PDGF-stimulated smooth muscle cell proliferation assay (BrdU incorporation); format: cell-based; details: for Percent of PDGF Induced Proliferation at 1 μM Avg / Percent of PDGF Induced Proliferation at 10 μM Avg: A-10 cells, 10 ng/mL PDGF, BrdU incorporation, percent of total challenge-stimulated proliferation; for Percent of PDGF Induced Proliferation at 1 μM Avg: 1 μM test compound; for Percent of PDGF Induced Proliferation at 10 μM Avg: 10 μM test compound;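 for all read-outs here: cells kept in serum-free medium, BrdU allowed to incorporate for 24 h, then incorporated label detected fluorometrically with an anti-BrdU antibody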
Method: Effects on cell proliferation were measured using a bromodeoxyuridine (BrdU) incorporation assay. […] Serum free media containing 01% BSA was added to the cells. 24 hours later the media was removed and replaced with warmed serum free media. […] Proliferation was then monitored using the BrdU Cell Proliferation Assay, HTS (Calbiochem cat. #t HTS01). BrdU was allowed to incorporate into cells for 24 hours prior to the addition of fixative/denaturing solution and the fluorometric detection of incorporated BrdU using a BrdU antibody as per manufacturer's directions. Data are reported as a percent of the PDGF-stimulated BrdU incorporation.

Akt3 human enzyme = target: T3, Akt3 human enzyme (Homo sapiens, UniProt Q9Y243); assay: Akt3 inhibition assay (IMAP FP); format: biochemical;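 note: kinase reaction run 60 min at room temperature after 30 µM ATP start, phosphorylated substrate captured on IMAP beads and read as fluorescence polarization (mP)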
T3 construct: purchased Upstate Chemicon 14-502
T3 sequence (Q9Y243 whole entry): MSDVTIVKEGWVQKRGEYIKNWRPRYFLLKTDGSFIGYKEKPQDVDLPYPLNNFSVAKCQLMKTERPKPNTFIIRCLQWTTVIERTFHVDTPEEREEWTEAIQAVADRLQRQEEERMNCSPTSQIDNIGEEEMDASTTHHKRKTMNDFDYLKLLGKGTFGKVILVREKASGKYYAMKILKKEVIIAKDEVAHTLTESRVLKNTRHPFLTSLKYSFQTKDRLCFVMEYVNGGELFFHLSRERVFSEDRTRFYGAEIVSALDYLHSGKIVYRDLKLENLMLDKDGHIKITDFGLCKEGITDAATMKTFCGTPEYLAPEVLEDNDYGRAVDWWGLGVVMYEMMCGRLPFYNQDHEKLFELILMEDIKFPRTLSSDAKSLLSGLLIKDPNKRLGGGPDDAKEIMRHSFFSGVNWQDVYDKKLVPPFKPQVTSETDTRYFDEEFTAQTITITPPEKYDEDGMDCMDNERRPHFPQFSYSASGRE

p70S6K human enzyme = target: T4, p70S6K human enzyme (Homo sapiens, UniProt P23443, T412E); assay: p70S6K inhibition assay (IMAP FP); format: biochemical;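 note: kinase reaction run at room temperature, phosphorylated substrate captured on IMAP beads and read as fluorescence polarization in mP, IC50 then converted to Ki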
T4 construct: purchased Upstate Chemicon 14-486
T4 sequence (P23443 1-421 T412E limits assumed): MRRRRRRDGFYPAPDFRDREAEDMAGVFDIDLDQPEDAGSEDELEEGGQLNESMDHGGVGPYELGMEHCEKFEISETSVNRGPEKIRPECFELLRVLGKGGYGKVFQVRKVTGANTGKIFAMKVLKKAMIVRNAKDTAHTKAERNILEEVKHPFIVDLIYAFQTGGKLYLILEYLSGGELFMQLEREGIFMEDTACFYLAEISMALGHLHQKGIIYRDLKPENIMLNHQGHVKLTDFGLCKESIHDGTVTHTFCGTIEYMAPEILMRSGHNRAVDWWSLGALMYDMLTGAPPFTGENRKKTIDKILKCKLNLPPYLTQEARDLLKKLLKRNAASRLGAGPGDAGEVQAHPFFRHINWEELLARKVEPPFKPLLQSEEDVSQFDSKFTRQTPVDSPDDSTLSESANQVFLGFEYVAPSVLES

[4] = Rat oral pharmacokinetics (plasma); format: in vivo; details: 20-30 μmol/kg
[5] = Compound concentrations in lungs of ova-sensitized, ova-challenged mice post IP, PO and IT administration; format: in vivo; details: male, Balb/c, mouse, lung, n = 9 or 10, read-out: Lung concentration (plasma corrected); for concentration at 3 h: BD model, time point 3 h
Method: Additionally, compound concentrations were determined in the plasma and lungs of male, ovalbumin-sensitized, Balb/c mice from a murine model of asthma. Test compounds were formulated in water or 1% polysorbate 80 and dosed at 15 μmol/kg for intraperitoneal (IP) or oral (PO) administration or formulated for intratracheal (IT) administration and dosed at 5 μmol/kg, which directly targets the lungs. Following completion of the in vivo study, mice were euthanized and blood and plasma collected approximately 2.5-3 hours post administration of test compound for bronchodialator (BD) studies and 24 hours post administration for anti-inflamatory (AI) studies. Lungs were homogenized in Matrix A lysing tubes using a FastPrep 24 tissue and cell homogenizer (MP Biomedicals, Solon, Ohio). Both plasma samples and lung extracts were assayed for compound concentrations using an on-line, solid phase extraction LC/MS/MS system. The actual lung tissue concentrations of each compound in mouse were extrapolated from the lung and plasma concentrations, data are shown in Table 11. The results of a set of experiments using unsensitized mice and collecting only plasma 15 minutes post administration of test compounds are shown in Table 12.

[6] = Compound plasma concentrations in unsensitized mice at 15 min post administration; format: in vivo; details: mouse
murine eosinophils = assay: Murine eosinophil chemotaxis induced by eotaxin; format: cell-based, mouse; details: 10 nM eotaxin challenge; FIG. 1
Method: Bronchoalveolar lavage was collected from ovalbumin sensitized and challenged mice in a volume of 2.5 mL lavage buffer. The lavage buffer was 0.9% saline with 10% fetal bovine serum. The pooled lavages were maintained on ice until use. The murine eosinophils were isolated using MACS cell separation (Miltenyi Biotech) by depletion of B cells and T cells by positive selection following incubation with antibody conjugated magnetic beads specific for CD45-R (B220) and CD90 (Thy 1.2), which bind B cells and T cells, respectively.
Eosinophil chemotaxis was assessed using a modified Boyden Chamber (Neuroprobe, 96-well) with a 5 μm pore membrane. The ability of the tested compounds to block chemotaxis induced by a 10 nM eotaxin challenge (mouse) or 1 nM eotaxin challenge (human) during one hour incubation at 37° C. with 5% CO2 was assessed. Chemotaxis was quantified via microscopy by counting the number of migrated cells in at least 3 view fields per treatment.

human eosinophils = assay: Human eosinophil chemotaxis induced by eotaxin; format: cell-based; details: 1 nM eotaxin challenge; FIG. 2
From the text: Peripheral blood from healthy human volunteers was collected and the PMNs separated via Ficoll-paque density centrifugation followed by hypotonic lysis of the red blood cells. Subsequently, the human eosinophils were isolated from the cell suspension via StemCell Technologies Human Eosinophil Enrichment kit (Cat. No 19256) according to the manufacturer's recommendations. Briefly, unwanted cells were specifically labeled with dextran-coated magnetic nanoparticles using bispecific Tetrameric Antibody Complexes (TAC) directed against cell surface antigens on human blood cells: […] The unwanted cells are then separated from the unlabelled eosinophils using the EasySep® magnetic isolation procedure.

[7] = 10 μM ATP, read-out: ROCK2 Ki, Avg
[8] = Neutrophil, 1 h, 1 μM fMLP challenge, one hour, read-out: Chemotaxis Avg. IC50
[9] = average IC50 for inhibition of fMLP-induced neutrophil chemotaxis, read-out: Chemotaxis IC50
[10] = 30 μM ATP, Ki=IC50/(1+([ATP Challenge]/EC50 ATP)), read-out: Akt3 Ki, Avg
[11] = 30 μM ATP, Ki=IC50/(1+([ATP Challenge]/EC50 ATP)), read-out: p70S6K Ki, Avg
[12] = average Ki, read-out: p70S6K Ki

CS(=O)(=O)Nc1cccc(CN2CCCC(Nc3ccc4[nH]ncc4c3)C2)c1 (stereo in doubt) [Compound 1.091, (S)-N-(3-((3-(1H-indazol-5-ylamino)piperidin-1-yl)methyl)phenyl)methanesulfonamide]
Ki (ROCK1; Avg, 10 μM ATP): 71.4 nM
Ki (ROCK1; average Ki): 71.4 nM
Ki (ROCK2; [7]): 3.3 nM
IC50 (human neutrophils; [8]): 2330 nM
IC50 (human neutrophils; [9]): 2300 nM
eosinophils (eosinophil influx, BALF) ([1]; dosed i.t. to day 30, anti-inflammatory dosing paradigm, FIG. 5): reduction of eosinophils
airway hyperreactivity ([2]; intratracheal once a day during days 27 to 30, FIG. 9): prevention of airway hyperreactivity
IL-1β % (human monocytes): 165.5%
IL-1β levels in BALF from LPS-challenged mice (LPS-challenged mice): reduction
Percent of PDGF Induced Proliferation at 1 μM Avg [3]: 85.7%
Percent of PDGF Induced Proliferation at 10 μM Avg [3]: 69.3%
Proliferation at 1 μM, % ([3]; average percent of PDGF stimulated proliferation at 1 μM of test compound): 85.7%
Ki (Akt3 human enzyme; [10]): 5390 nM
Ki (Akt3 human enzyme; average Ki, read-out: Akt3 Ki): 5390 nM
Ki (p70S6K human enzyme; [11]): 1420 nM
Ki (p70S6K human enzyme; [12]): 1420 nM
AUC (0-last) ([4]; mean n = 3): BLQ
Cmax ([4]; mean n = 3): BLQ
Tmax ([4]; mean n = 3): BLQ
Vz_F ([4]; mean n = 3): BLQ
t½ ([4]; mean n = 3): BLQ
concentration at 3 h ([5]; intraperitoneal, IP 15 μmol/kg): 117 nM
concentration at 15 min ([6]; plasma, unsensitized mice, 15 min post administration, mean n = 3, read-out: Plasma Mean Concentration): 334 nM

CS(=O)(=O)Nc1cccc(CN2CC[C@@H](Nc3cccc4cnccc34)C2)c1 [Compound 2.038, (R)-N-(3-((3-(isoquinolin-5-ylamino)pyrrolidin-1-yl)methyl)phenyl)methanesulfonamide]
Ki (ROCK1; Avg, 10 μM ATP): 28.9 nM
Ki (ROCK1; average Ki): 28.9 nM
Ki (ROCK2; [7]): 6.3 nM
Ki (ROCK2; average Ki, read-out: ROCK2 Ki): 6.3 nM
IC50 (human neutrophils; [8]): 734 nM
IC50 (human neutrophils; [9]): 700 nM
eotaxin-induced chemotactic response of murine eosinophils (murine eosinophils): inhibited
eotaxin-induced chemotactic response of human eosinophils (human eosinophils): inhibited
concentration of IL-5 in BALF ([1]; 15 μmol/kg/oral on days 27 to 31, FIG. 6): reduced levels
concentration of Eotaxin in BALF ([1]; 15 μmol/kg/oral on days 27 to 31, FIG. 7): reduced levels
concentration of IL-13 in BALF ([1]; 15 μmol/kg/oral on days 27 to 31, FIG. 8): reduced levels
Airway eosinophil infiltration (eosinophils per ml of BALF) ([1]; dosed orally to day 31, anti-inflammatory dosing paradigm, FIG. 4): reduced
log10AUC (Penh) ([2]; 15 μmol/kg/oral, days 27 to 31): 1.8981
airway hyperreactivity to methacholine dosed on Day 32 ([2]; oral 15 μMol/kg once a day during days 27 to 31): prevention of airway hyperreactivity
Percent of PDGF Induced Proliferation at 1 μM Avg [3]: 58.6%
Percent of PDGF Induced Proliferation at 10 μM Avg [3]: 62.7%
Ki (Akt3 human enzyme; [10]): 2550 nM
Ki (Akt3 human enzyme; average Ki, read-out: Akt3 Ki): 2550 nM
Ki (p70S6K human enzyme; [11]): 1400 nM
Ki (p70S6K human enzyme; [12]): 1400 nM
Vz_F ([4]; mean n = 3): 22.5 L/kg
AUC(0-t) ([4]; male, CD Sprague Dawley, mean n = 3): 1.28 µM·h
Cmax ([4]; male, CD Sprague Dawley, mean n = 3, read-out: Cmax): 1040 nM
Tmax ([4]; male, CD Sprague Dawley, mean n = 3, read-out: Tmax): 30 min
half-life ([4]; male, CD Sprague Dawley, mean n = 3, read-out: t½ (converted)): 42.6 min
concentration at 24 h ([5]; AI model, PO 15 μmol/kg, time point 24 h): 11 nM
concentration at 3 h ([5]; PO 15 μmol/kg): 440 nM
concentration at 15 min ([6]; 15 μmol/kg, mean compound plasma concentration in mice at 15 minutes post oral administration, read-out: Mouse Oral PK): 729 nM
